The text below walks through data of US5547956A, “Pharmaceutical composition and the method for treating drug addicts' withdrawal syndromes and detoxifying addicts by the same” (priority 1991, dated 1996).

Counter-ions that a name gives are not always drawn. Like-named read-outs stand apart in the source and are kept apart here.

Series [1] has as its system mice dependent on cocaine. How it is done: In the same way as described above, subcutaneous injection of cocaine (10 mg/kg) were given to the mice twice a day, and the injection was continued for 7 days.
For series [2], the system named is morphine-dependent monkeys.
Series [3] concerns Morphine-dependent rats. The series is classed as in vivo, Wister rat. How it is done:
Wister male rats weighing 200-250 g were divided into 3 groups (10 for each group).
II Physiological saline 2 ml/kg. sc
III Lappaconitine hydrobromide 8 mg/kg. sc

Series [4] deals with mice. How it is done:
Male mice weighing 18~22 g were used for the test and divided into 3 groups (10 for every group). […] The second group of mice was given a subcutaneous injection of lappaconitine hydrobromide (8 mg/kg) for 20 days. The third group was a control group and was given physiological saline. 6 hours after being given the last dose, all the mice were given an intraperitoneal injection of 10 mg/kg allyl dromaran, and then were placed in a cone cylinder cage (diameter=30 cm, height=35 cm). The number of jumps for each mouse in 60 minutes was recorded.

Series [5] relates to mice. Here is the method:
In another case, male mice weighing 18-22 g were divided into four groups (10 for every group). Two groups of mice were injected subcutaneously with lappaconitine hydrobromide 7 times within 2 days. The initial dosage was 3.5 mg/kg. Then, additional doses of 0.5 mg/kg and 1.0 mg/kg were given for every injection in each group, respectively. […] The initial dosage was 2.5 mg/kg and an escalating dose schedule of 5, 10, 20, 30, 40, 50 mg/kg was applied. The fourth group of mice was used as control group and was given physiological saline. Two hours after the last injection, all the mice of the above four groups were injected with 50 mg/kg nalorphine through the intraperitoneal cavity. The number of jumps within 10 minutes in each group of mice were recorded.
This is another data set of the same source.

Series [6] deals with Morphine-dependent Mice. The series is classed as in vivo, mouse. The settings on record: for Jumping Mice/Survived Mice, Day 1 after stopping drug / Jumping Mice/Survived Mice, Day 4 after stopping administration / Jumping Mice/Survived Mice, Day 5 of treatment: nalorphine 50 mg/kg. How it is done:
In the first 4 days, administration was given once per 6 hours, four times a day. From day 5 through day 7, administration was given once every 8 hours, three times a day. On day 5 and day 8 of treatment, respectively, subcutaneous injections of nalorphine (50 mg/kg) were made to […].

Series [7] is described as follows: Acute Toxicity Test, rats. The series is classed as in vivo, rat.
Series [8] concerns Macaca mulatta. Put plainly: Monkey addiction test (lappaconitine). The series is classed as in vivo.
Protocol: Three of 6 Macaca mulatta weighing 2.75~4.75 kg were subcutaneously injected with lappaconitine twice a day. The initial dosage is 0.1 mg/kg, and the dose was successively escalated to the maximum tolerance dosage, 2 mg/kg within 50 days. Then, the tolerance dosage was maintained to the 53rd day, 67th day and 92nd day, respectively. […] On day 63 and day 92, the injections of lappaconitine to the monkeys was stopped. […] On day 29, 53, 59, 67 and 90, injections to the monkeys were discontinued and after 18 hours, subcutaneous injection of nalorphine (4 or 8 mg/kg) were given.
The format of series [9] is in vivo, Wister rat. The settings on record: 5 or 10 mg/kg ip a day, 30 days. Here is the method: Ten Wister rats weighing 200~250 g were divided into 2 groups (5 for each group). Each group was given intraperitoneal injection of 5 mg/kg or 10 mg/kg of lappaconitine a day, respectively. The injection was continued for 30 days. 5 wister rats of a control group were given subcutaneous injections of saline (2 ml/kg). […].

Series [10] is described as follows: Acute Toxicity Test, monkeys. The series is classed as in vivo, Macca Mulatta.
The format of series [11] is in vivo, Wister rat. Conditions: 8 to 14 mg/kg ip escalated, until day 28. How it is done: Another ten Wister rats were medicated with successively escalated doses, in other words, the rats were first injected with lappaconitine (8 mg/kg) intraperitoneally. After one week with 10 mg/kg; after 2 weeks with 12 mg/kg; after 16 days with 14 mg/kg; and the last dose was maintained until day 28.

Series [12] in a line: Subacute toxicity Test, monkeys. It is filed as in vivo, Macca Mulatta. Here is the method: Three Macca Mulatta weighing 2.75~4.75 kg were injected with lappaconitine subcutaneously twice a day. Initiated with 0.1 mg/kg, the dosage was increased successively to the highest tolerated dosage, 2 mg/kg within 50 days, and the last dosage was maintained to day 53, day 67 and day 92, respectively. The accumulated injective dosage was 196, 400 and 635 mg, respectively.

The nature of series [13]: Acute Toxicity Test, mice. Conditions: for LD50: mouse, in vivo, read-out: LD50 (95 % confidence limit). The series is classed as in vivo, mouse.
For series [14] the following is noted: oral methadone vs injected morphine; cited from earlier work.
Setting [15] is: 0.45 mg/g sc (so in the source).
Where [16] appears, read: 0.1 to 2 mg/kg sc twice a day, to day 53, 67 and 92.
Setting [17] is: nalorphine 50 mg/kg, 2 days: lappaconitine initial 3.5 mg/kg, total 45.5 mg/kg, 5 mice tested.

On to `COC(=O)[C@H]1[C@@H](OC(=O)c2ccccc2)C[C@@H]2CC[C@H]1N2C` [cocaine, reference compound], for which, in series [1] (10 mg/kg sc twice a day, 7 days), the “abnormal signs during injection of cocaine” value is “anorexia, pilo-erection, and frequent walking with holding tail, and the like”.
Regarding `CN1CC[C@]23c4c5ccc(O)c4O[C@H]2[C@@H](O)C=C[C@H]3[C@H]1C5.Cl` [Morphine, morphine hydrochloride, reference compound], the “Withdrawal Syndrome, Nalorphine 0.5 mg/kg sc” value in [2] (Table 5, per monkey (No. 7, 8) and day) is reported as “+”. The dependence in monkeys result in series [2] (sc twice a day until the 30th day) is “showed dependence on morphine”. In addition, the “effect on withdrawal symptoms of morphine-dependent monkeys” value in series [2] (sc, lappaconitine 2 mg/kg, 18 hours after stopping morphine) was “obviously reduced or disappeared”. Moreover, the “average weight loss per rat” value in [3] (24 hours after discontinuing morphine (25 mg/kg sc twice a day, 12 weeks)) came to 25 g. Moreover, the “behaviour of morphine-withdrawn rats after injection” value in series [3] (morphine hydrochloride 25 mg/kg sc or lappaconitine hydrobromide 8 mg/kg sc) is “turned to being excited from being suppressive, moved increasingly, frequently took food and water”. Moreover, the “weight change of morphine-withdrawn rats after injection” value in series [3] (within 8 hours, morphine hydrochloride 25 mg/kg sc or lappaconitine hydrobromide 8 mg/kg sc) is “the weight increased to the level shown very quickly before stopping injection of morphine”. In addition, the “jumping times of each mouse” value is given as 34 in series [4] (allyl-dromaran 10 mg/kg ip, 20 days: morphine 80 mg/kg (total 1600), lappaconitine 8.0 mg/kg (total 160)) and 9 in [5] (nalorphine 50 mg/kg, 2 days: morphine initial 2.5 mg/kg (total 157.5), lappaconitine initial 3.5 mg/kg (total 35)).
Turning to `CCN1CC2(OC(=O)c3ccccc3NC(C)=O)CCC(OC)C34C1C(CC23)C1(O)CC(OC)C2CC4C1(O)C2OC` (stereo not shown) [Lappaconitine hydrobromide, lappaconitine hydrobromide], in [6] (setting [15]), the “Jumping Mice/Survived Mice, Day 1 after stopping drug” value is on record as 0/10; the “Jumping Mice/Survived Mice, Day 4 after stopping administration” value is recorded as 0/10; the “Jumping Mice/Survived Mice, Day 5 of treatment” value is given as 1/10. In addition, in [6] (footnote *^3, 0.45 mg/g (so in the source) sc group, Day 5), the “number of jumps of the one jumping mouse” value is on record as “five”. Moreover, in series [4] (mouse, in vivo), the behaviour after administration result is “looked quiet and immobile and showed no pilo-erection reaction”; the “jumping reaction after injection of allyl dromaran” value is given as “no jumping reaction”. Also, the “drug dependence (conclusion of Table 4)” value in [5] (mouse jumping test) was “does not cause drug dependence”.
As for `CCN1CC2(OC(=O)c3ccccc3NC(C)=O)CCC(OC)C34C1C(CC23)C1(O)CC(OC)C2CC4C1(O)C2OC` (stereo not shown) [Lappaconitine], the toxicity reactions entry is “looked suppressive and immobile lying on stomach in cage, obvious suppression of respiration and showed convulsions before death” in series [7] (intraperitoneal, toxicity dosage); “paroxysmal restlessness, and foreleg tic” in series [13] (toxicity dosages). Moreover, the LD50 in series [7] (rat, in vivo, ip, intraperitoneal injection, read-out: LD50 (95 % confidence limit)) came out at 16.5 mg/kg; in [13] (intravenous injection) it was 8.4 mg/kg; in series [13] (po, intra gasteria), 32.4 mg/kg; in series [13] (sc, subcutaneous injection), 11.7 mg/kg. Also, the “effect on withdrawal symptoms of morphine-dependent monkeys” value in series [2] (in vivo) is “could not relieve or weaken the above withdrawal symptoms”. The substitute for morphine result in series [2] (in vivo, sc, 2 mg/kg) is recorded as “does not act as a substitute for morphine”. In [8] (18 hours after discontinuing on day 29, 53, 59, 67 and 90, nalorphine 4 or 8 mg/kg sc), the “withdrawal symptoms after nalorphine” value was “No withdrawal symptoms were observed”. The “behavior and appetite after stopping injections” value in series [8] (24 hours following stop on day 63 and day 92) was “no different behavior and appetite from that before stopping injection”. Besides, the “dependence after long term use” value in series [8] (monkeys) was “does not cause dependence after long term use”. The electrocardiography examination entry in series [9] is “No obvious change”; in series [10] (3 mg/kg sc), “T wave had elevation, T wave and P wave fused, and R wave became smaller and notching”. Further, the “hepatic and renal function and histological and pathological examination of viscera” value in series [9] is “No change was observed”. For the same compound, the results for the “weight increase compared to control” value in series [9] and in series [11] were “inhibited weight increase at different levels” and “a little suppressed”, respectively. Besides, the “toxic reaction and electrocardiography” value in [10] (2 mg/kg sc, two monkeys) is “No toxic reaction and no effect on electrocardiography were observed”. The toxic reactions result in [10] (3 mg/kg sc, 30 minutes after injection) was “restlessness, slobbering, increased swallowing, drooping eyelids, and rigidity of leg muscles”. Besides, in series [10] (3 mg/kg sc, from 45 minutes), the “convulsion and death of one monkey” value is given as “The convulsion still continued until death after 1 hr”. The “duration of toxic reaction in the other monkey” value in series [10] (3 mg/kg sc, no convulsion) is 2 h. For the same compound, the “electrocardiography examination next day” value in series [10] (3 mg/kg sc, surviving monkey) is listed as “normal”. In addition, the “Histological and pathological examinations” value in series [12] (setting [16]) was “stimulating reaction, except a little edema and hydrodenaturation in the liver and increasing cerebral colloid cells”. For the same compound, in [12] (setting [16]), the electrocardiographic examination result is recorded as “No obvious change”. Moreover, in series [12] (setting [16]), the “toxic reaction during administration” value was “No toxic reaction”. In series [12] (rhesus monkey, in vivo, monkey, sc twice a day, escalated from 0.1 mg/kg within 50 days, read-out: maximum tolerance dosage / highest tolerated dosage), the MTD was 2 mg/kg. The “behaviour of morphine-withdrawn rats after injection” value in series [3] (rat, in vivo) is “still looked suppressive”. Further, the “weight change of morphine-withdrawn rats after injection” value in [3] (rat, in vivo) is “no weight increase was observed”. The substitution for morphine result in series [3] (rat, in vivo, sc, 8 mg/kg) is listed as “did not act as a substitution for morphine”. For the same compound, in series [1] (mouse, in vivo), the “recovery of cocaine-treated mice” value is “recovered to normal”. The “jumping times of each mouse” value in series [4] (mouse, in vivo) is listed as 0.2; in series [5] (mouse, in vivo), 0; in series [5] (setting [17]), 0. For the same compound, the “number of jumping mice” value in [4] (mouse, in vivo) is reported as 1; in [5] (mouse, in vivo), 0; in series [5] (setting [17]), 0. Besides, the “toxicity reactions at lethal dosage” value in series [13] (lethal dosage) was “paroxysmal convulsion, respiration suppression until suffocation, and death”. In addition, in series [5] (initial 3.5 mg/kg, total 45.5 mg/kg in 2 days, of 10 mice), the “mice died of accumulated toxicity during the administration” value is reported as “five”.
Turning to `CCN1CC2(O)CCC(OC)C34C1C(CC23)C1(O)CC(OC)C2CC4C1(O)C2OC` (stereo not shown) [Lappaconine hydrobromide, lappaconine hydrobromide], in series [6] (5 mg/g (so in the source) sc), the “Jumping Mice/Survived Mice, Day 1 after stopping drug” value was 0/10; the “Jumping Mice/Survived Mice, Day 4 after stopping administration” value is on record as 0/10; the “Jumping Mice/Survived Mice, Day 5 of treatment” value is 0/10.
Regarding `C=CCN1CC[C@]23c4c5ccc(O)c4O[C@H]2[C@@H](O)C=C[C@H]3[C@H]1C5` [nalorphine], the “effect of nalorphine on withdrawal symptoms” value in series [2] (in vivo, sc) is listed as “the above symptoms would be more obvious”.
Regarding `CCC(=O)C(CC(C)N(C)C)(c1ccccc1)c1ccccc1` (stereo not shown) [methadone], the “dependence potential of 100 mg of oral methadone” value in [14] was “equivalent to that of 10 mg of injected morphine”.
Take `CCN1CC2(OC(=O)c3ccccc3N)CCC(OC)C34C1C(CC23)C1(O)CC(OC)C2CC4C1(O)C2OC` (stereo not shown) [N-deacetyllappaconitine hydrobromide, N-deacetyl-lappaconitine hydrobromide]: in series [6] (5 mg/g (so in the source) sc), the “Jumping Mice/Survived Mice, Day 1 after stopping drug” value is reported as 0/10; the “Jumping Mice/Survived Mice, Day 4 after stopping administration” value is reported as 0/10; the “Jumping Mice/Survived Mice, Day 5 of treatment” value is 0/10.

Broadly, the LD50 is the dose expected to kill half of the subjects tested.
